{
  "source": "paper PMC11487632",
  "about": "(Molecular Pharmaceutics, 2024)",
  "key": {"[1]": {"experiment": "Co-dissolution procedure: apparent solubility of API mixtures with CFN, TPH, TBR or XAT (HPLC, Noyes-Whitney fit)", "format": "physicochemical", "details": "for increase of XAT-derivative solubility by IBP and DCF (NSAIDs): equimolar IBP or DCF mixtures; for effect of codissolved CFN on API solubility / saturated concentration / effect of codissolved TBR on API dissolution curve / saturated concentration / effect of codissolved TPH on API solubility / saturated concentration / effect of codissolved XAT on API dissolution curve / saturated concentration: equimolar mixture"}, "[2]": {"details": "ref 18 (given for CFN and TPH only); cited from earlier work"}, "[3]": {"details": "ref 18 (given for CFN and TPH only); cited from earlier work", "remark": "listed apart in the source"}, "[4]": {"details": "cited from earlier work"}, "[5]": {"details": "ref 18 (not printed for TBR and XAT); cited from earlier work"}, "[6]": {"experiment": "Pre-dissolution procedure: apparent solubility of pure APIs in buffer with predissolved XAT derivatives (HPLC, Noyes-Whitney fit)", "format": "physicochemical", "details": "for effect of predissolved TPH on API solubility: 5-20 mM TPH in 100 mM phosphate buffer pH 6.8; for effect of predissolved CFN on API solubility: 10-50 mM CFN in 100 mM phosphate buffer pH 6.8; for solubility: phosphate buffer, 25 °C, pH 6.8, aqueous buffer, thermodynamic from solid, read-out: solubility (eq 1); for solubility / saturated concentration (curve fitting eq 1): 100 mM phosphate buffer pH 6.8, 298 K", "procedure": "The sample solution was filtered with a membrane filter (Minisart RC 4 with 0.22 μm pore size; Sartorius, Göttingen, Germany). The fractionation of the API or XAT derivative in the filtrate was performed via HPLC (Shimadzu Co., Kyoto, Japan) using a mobile phase of 25 mM citric acid buffer (pH 3.0):methanol of 3:7 at a flow rate of 1 mL/min.\nTo assess the apparent solubility of pure APIs in solutions of XAT derivatives, “pre-dissolution procedures” were conducted. […] The API samples, adjusted to exceed saturation, were added to 5 mL of the dissolving medium and shaken in a water bath at 298 K for a specific duration. The concentration of API in the supernatant was measured using HPLC. The solubility concentrations of all APIs were determined from each API’s standard curves. The R-square values of all standard curves are over 0.995.\nThe dissolution process of the pure APIs or API mixtures assumably corresponded to a linear correlation or a saturation curve. The API samples were homogenized using an agate mortar and pestle to align the particle sizes without sieving, considering the potential contamination of superfine powders. The immediate dissolution of the adhering powders in the solution at t = 0 was assumed; additionally, their concentrations were treated as the initial concentration (C = C0) if a sink condition was applicable owing to the higher solubility of the API.\nFor curves resembling a saturation curve, nonlinear curve fitting using the Noyes–Whitney integral expression (eq 1) was applied:[48],[49] [drawing 1] 1 where Ceq is the apparent solubility of the API, k is the dissolution rate constant, and S is the surface area of the sample particles. […] Curve-fitting procedures employed the Solver module of Microsoft Excel 2016 with the implemented GRG nonlinear option. The recrystallized precipitates were verified by X-ray powder diffraction (XRPD) and differential scanning calorimetry (DSC); no cocrystals or other generated solids were observed."}, "[7]": {"set-up": "method as in previous study", "details": "ref previous study, cited from earlier work; for solubility during the predissolution procedure: presence or absence of cimetidine (CIM) in solution insignificant; for solubility during the codissolution procedure: simultaneous addition of CIM crystal powder"}, "[8]": {"details": "cited from earlier work", "remark": "listed apart in the source"}},
  "note": "Like-named read-outs stand apart in the source and are kept apart here.",
  "data": [
    {"smiles": "O=c1[nH]c(=O)c2[nH]cnc2[nH]1", "note": "[XAT, xanthine]", "values": [
      {"measurement": "increase of XAT-derivative solubility by IBP and DCF (NSAIDs)", "setting": "[1]", "result": 2, "unit": "fold"}
    ]},
    {"smiles": "Cn1c(=O)c2[nH]cnc2n(C)c1=O", "note": "[TPH, theophylline]", "values": [
      {"measurement": "water solubility", "setting": "[2]", "result": 40000, "unit": "µM"},
      {"measurement": "log P", "setting": "[3]", "result": 0.00},
      {"measurement": "effect of IBP on saturation concentration of the XAT derivative", "setting": "[1]; equimolar mixtures with IBP, effect of DCF greater than that of IBP", "result": "increased"},
      {"measurement": "distribution volume Vd", "setting": "[4]; TPH, no reference given", "result": 0.5, "unit": "L/kg"},
      {"measurement": "therapeutic range in the blood", "setting": "[4]; narrow therapeutic range", "result": "0.06 to 0.11", "unit": "mmol/L"}
    ]},
    {"smiles": "Cn1cnc2c1c(=O)[nH]c(=O)n2C", "note": "[TBR, theobromine]", "values": [
      {"measurement": "water solubility", "setting": "[2]", "result": 2000, "unit": "µM"},
      {"measurement": "log P", "setting": "[3]", "result": "−0.78"},
      {"measurement": "solubility", "setting": "[1]; 25 °C, aqueous buffer, thermodynamic from solid, pure, 100 mM phosphate buffer pH 6.8, read-out: solubility of the pure XAT derivative", "result": 1000, "unit": "µM"},
      {"measurement": "increase of XAT-derivative solubility by IBP and DCF (NSAIDs)", "setting": "[1]", "result": 3, "unit": "fold"},
      {"measurement": "pKa", "setting": "[5]", "result": 10.05}
    ]},
    {"smiles": "O=C(O)Cc1ccccc1Nc1c(Cl)cccc1Cl", "note": "[DCF, diclofenac]", "values": [
      {"measurement": "effect of predissolved TPH on API solubility", "setting": "[6]", "result": "enhanced"},
      {"measurement": "effect of predissolved CFN on API solubility", "setting": "[6]", "result": "enhanced"},
      {"measurement": "solubility", "setting": "[6]; in the absence of CFN (CFN series)", "result": "1760 ± 44", "unit": "µM"},
      {"measurement": "solubility", "setting": "[6]; in the absence of TPH (TPH series)", "result": "1690 ± 53", "unit": "µM"},
      {"measurement": "effect of famotidine (FAM) on final solubility", "setting": "[7]; equilibrated solution, FAM delayed dissolution", "result": "not affected"},
      {"measurement": "solubility during the predissolution procedure", "setting": "[7]", "result": 829, "unit": "µM"},
      {"measurement": "solubility during the codissolution procedure", "setting": "[7]", "result": 3390, "unit": "µM"},
      {"measurement": "effect of codissolved CFN on API solubility / saturated concentration", "setting": "[1]; 100 mM phosphate buffer pH 6.8", "result": "increased"},
      {"measurement": "effect of codissolved TBR on API dissolution curve / saturated concentration", "setting": "[1]; 100 mM phosphate buffer pH 6.8", "result": "did not significantly differ"},
      {"measurement": "effect of codissolved TPH on API solubility / saturated concentration", "setting": "[1]; 100 mM phosphate buffer pH 6.8", "result": "increased"},
      {"measurement": "effect of codissolved XAT on API dissolution curve / saturated concentration", "setting": "[1]; 100 mM phosphate buffer pH 6.8", "result": "did not significantly differ"},
      {"measurement": "solubility", "setting": "[8]; 50 mM MES buffer (pH 5.5)", "result": "~100", "unit": "µM"},
      {"measurement": "solubility", "setting": "[8]; 100 mM phosphate buffer (pH 6.45)", "result": "approximately 0.7 mM"},
      {"measurement": "change of solubility on addition of 10 mM LDC to the dissolution buffer", "setting": "[8]; within the buffering capacity range", "result": "increased"}
    ]},
    {"smiles": "Cn1c(=O)c2c(ncn2C)n(C)c1=O", "note": "[CFN, caffeine]", "values": [
      {"measurement": "distribution volume Vd", "setting": "[4]; CFN", "result": 0.7, "unit": "L/kg"}
    ]},
    {"smiles": "CC(C)Cc1ccc([C@H](C)C(=O)O)cc1", "note": "[IBP, (S)-(+)-ibuprofen]", "values": [
      {"measurement": "effect of predissolved TPH on API solubility", "setting": "[6]", "result": "did not influence"},
      {"measurement": "effect of predissolved CFN on API solubility", "setting": "[6]", "result": "did not influence"},
      {"measurement": "saturated concentration (curve fitting eq 1)", "setting": "[6]; predissolved CFN series, irrespective of CFN", "result": "17.22 ± 0.61", "unit": "mM"},
      {"measurement": "saturated concentration (curve fitting eq 1)", "setting": "[6]; predissolved TPH series, irrespective of TPH", "result": "17.34 ± 0.86", "unit": "mM"},
      {"measurement": "effect of codissolved CFN on API solubility / saturated concentration", "setting": "[1]; 100 mM phosphate buffer pH 6.8", "result": "decreased"},
      {"measurement": "effect of codissolved TBR on API dissolution curve / saturated concentration", "setting": "[1]; 100 mM phosphate buffer pH 6.8", "result": "did not significantly affect"},
      {"measurement": "effect of codissolved TPH on API solubility / saturated concentration", "setting": "[1]; 100 mM phosphate buffer pH 6.8", "result": "decreased"},
      {"measurement": "effect of codissolved XAT on API dissolution curve / saturated concentration", "setting": "[1]; 100 mM phosphate buffer pH 6.8", "result": "did not significantly affect"},
      {"measurement": "solubility", "setting": "[8]; 25 mM phosphate buffer (pH 6.88)", "result": "~20000", "unit": "µM"},
      {"measurement": "solubility", "setting": "[8]; 100 mM phosphate buffer (pH 7.18)", "result": "approximately 40 mM"},
      {"measurement": "change of solubility in mixtures with lidocaine (LDC)", "setting": "[8]; mixtures with LDC, without pH fluctuations", "result": "reduced"}
    ]},
    {"smiles": "COc1ccc2c(c1)c(CC(=O)O)c(C)n2C(=O)c1ccc(Cl)cc1", "note": "[INM, indomethacin]", "values": [
      {"measurement": "effect of CFN added to the dissolving medium on solubility", "setting": "[6]; data not published", "result": "enhanced"},
      {"measurement": "solubility during the predissolution procedure", "setting": "[7]", "result": 625, "unit": "µM"},
      {"measurement": "solubility during the codissolution procedure", "setting": "[7]", "result": 3340, "unit": "µM"}
    ]}
  ]
}
